# From patent publication US20230265116A1, “DEGRADATION OF (EGFR) BY CONJUGATION OF EGFR INHIBITORS WITH E3 LIGASE LIGAND AND METHODS OF USE” (BEIGENE, LTD., priority 2020, published 2023)
# Experiments:
# [1] = test system: EGFR Del19/T790M/C797S (BaF3-DTC cells); assay: EGFR degradation HTRF assay, BaF3-DTC cells; type: cell-based; conditions: 16h treatment; for DTC Dmax (%): maximum percentage of degradation; for DC50: read-out: DTC DC50
# Method in brief: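 Cells treated 16 h at 37 °C, 5% CO2 in medium with 0.2% DMSO; top final concentration 10 uM, 5-fold dilution, 8 doses. Lysates read by HTRF (665/620 nm); degradation % versus DMSO high control, DC50 from four-parameter fit, Dmax as maximal degradation.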
# [2] = target: T1, EGFR L858R/T790M/C797S (BaF3-LTC cells) (Homo sapiens, UniProt P00533, C797S/L858R/T790M); assay: EGFR degradation HTRF assay, BaF3-LTC cells; type: cell-based; conditions: BaF3-LTC, 16h treatment; for Dmax: maximum percentage of degradation, read-out: LTC Dmax (%); for DC50: read-out: LTC DC50
# T1 construct: expressed in transfected cells; host or cells: BaF3
# T1 sequence (P00533 25-1210 T790M/C797S/L858R): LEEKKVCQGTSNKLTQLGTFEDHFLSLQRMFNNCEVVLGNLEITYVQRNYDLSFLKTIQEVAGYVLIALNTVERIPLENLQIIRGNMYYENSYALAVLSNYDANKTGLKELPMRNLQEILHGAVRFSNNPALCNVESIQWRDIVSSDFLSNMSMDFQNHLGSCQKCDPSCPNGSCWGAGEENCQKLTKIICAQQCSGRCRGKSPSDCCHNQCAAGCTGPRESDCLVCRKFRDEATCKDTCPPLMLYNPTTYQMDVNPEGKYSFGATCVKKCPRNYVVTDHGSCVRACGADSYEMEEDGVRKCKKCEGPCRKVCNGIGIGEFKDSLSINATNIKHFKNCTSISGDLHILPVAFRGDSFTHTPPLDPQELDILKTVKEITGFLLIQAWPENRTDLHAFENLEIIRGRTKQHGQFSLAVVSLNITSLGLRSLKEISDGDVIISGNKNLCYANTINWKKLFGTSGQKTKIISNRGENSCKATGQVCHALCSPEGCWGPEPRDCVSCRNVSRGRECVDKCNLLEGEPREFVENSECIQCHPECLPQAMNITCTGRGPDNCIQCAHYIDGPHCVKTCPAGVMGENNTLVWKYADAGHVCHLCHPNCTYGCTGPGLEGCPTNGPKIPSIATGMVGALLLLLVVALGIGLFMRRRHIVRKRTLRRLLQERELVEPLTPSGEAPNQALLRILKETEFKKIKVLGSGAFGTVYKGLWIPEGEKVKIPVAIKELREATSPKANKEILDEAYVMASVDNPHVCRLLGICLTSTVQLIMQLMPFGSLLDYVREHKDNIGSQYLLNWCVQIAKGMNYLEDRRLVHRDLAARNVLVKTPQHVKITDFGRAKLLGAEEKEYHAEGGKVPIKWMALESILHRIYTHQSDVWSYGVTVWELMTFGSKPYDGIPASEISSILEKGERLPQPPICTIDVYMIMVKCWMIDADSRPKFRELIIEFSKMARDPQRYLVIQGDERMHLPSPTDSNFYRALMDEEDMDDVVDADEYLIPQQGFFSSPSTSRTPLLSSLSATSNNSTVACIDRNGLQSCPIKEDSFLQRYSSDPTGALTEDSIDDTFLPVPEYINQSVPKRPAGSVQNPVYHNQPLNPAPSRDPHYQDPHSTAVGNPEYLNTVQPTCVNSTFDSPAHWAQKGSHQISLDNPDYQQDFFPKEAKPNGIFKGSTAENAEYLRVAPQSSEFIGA
# Method in brief: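 EGFR remaining after a 16 h, 37 °C exposure (8 doses, 5-fold steps from 10 uM final, 0.2% DMSO) was quantified by HTRF antibodies in cell lysate. Percent inhibition relative to DMSO control was fitted by four-parameter logistic to give DC50; Dmax denotes maximal degradation.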
Compound,DC50 [1] [nM],Dmax [2] [%],DC50 [2] [nM],DTC Dmax (%) [1] [%]
"CCc1cc(Nc2ncc(Cl)c(Nc3ccc4nccnc4c3P(C)(C)=O)n2)c(OC)cc1N1CCC(N2CCN(CCC3CCN(c4cc(F)c(C5CCC(=O)NC5=O)c(F)c4)CC3)CC2)CC1 (stereo not drawn) [Example 269, 3-(4-(4-(2-(4-(1-(4-((5-chloro-4-((5-(dimethylphosphoryl)quinoxalin-6-yl)amino)pyrimidin-2-yl)amino)-2-ethyl-5-methoxyphenyl)piperidin-4-yl)piperazin-1-yl)ethyl)piperidin-1-yl)-2,6-difluorophenyl)piperidine-2,6-dione]",21.5,88.8,43.7,95.39
"CCc1cc(Nc2ncc(Br)c(Nc3ccc4nccnc4c3P(C)(C)=O)n2)c(OC)cc1N1CCC(N2CCN(CCc3ccc(C4(C)CCC(=O)NC4=O)cc3)CC2)CC1 (stereo not drawn) [Example 280, 3-(4-(2-(4-(1-(4-((5-bromo-4-((5-(dimethylphosphoryl)quinoxalin-6-yl)amino)pyrimidin-2-yl)amino)-2-ethyl-5-methoxyphenyl)piperidin-4-yl)piperazin-1-yl)ethyl)phenyl)-3-methylpiperidine-2,6-dione]",152,76,248,68.21
"CCc1cc(Nc2ncc(Br)c(Nc3ccc4nccnc4c3P(C)(C)=O)n2)c(OC)cc1N1CCC(N2CCN(CCCCc3cc(F)c(C4CCC(=O)NC4=O)c(F)c3)CC2)CC1 (stereo not drawn) [Example 282, 3-(4-(4-(4-(1-(4-((5-bromo-4-((5-(dimethylphosphoryl)quinoxalin-6-yl)amino)pyrimidin-2-yl)amino)-2-ethyl-5-methoxyphenyl)piperidin-4-yl)piperazin-1-yl)butyl)-2,6-difluorophenyl)piperidine-2,6-dione]",15.2,85,21.5,93.51
"CCc1cc(Nc2ncc(Br)c(Nc3ccc4nccnc4c3P(C)(C)=O)n2)c(OC)cc1N1CCC(N2CCN(CCc3ccc(C4CCC(=O)NC4=O)c(F)c3)C[C@@H]2COC)CC1 (stereo partly drawn) [Example 286, 3-(4-(2-((R)-4-(1-(4-((5-bromo-4-((5-(dimethylphosphoryl)quinoxalin-6-yl)amino)pyrimidin-2-yl)amino)-2-ethyl-5-methoxyphenyl)piperidin-4-yl)-3-(methoxymethyl)piperazin-1-yl)ethyl)-2-fluorophenyl)piperidine-2,6-dione]",23.7,81.5,59.3,75.85
"CCc1cc(Nc2ncc(Br)c(Nc3ccc4nccnc4c3P(C)(C)=O)n2)c(OC)cc1N1CCC(N2CCN(CCc3ccc(C4CCC(=O)NC4=O)c(F)c3)[C@H](CO)C2)CC1 (stereo partly drawn) [Example 291, 3-(4-(2-((S)-4-(1-(4-((5-bromo-4-((5-(dimethylphosphoryl)quinoxalin-6-yl)amino)pyrimidin-2-yl)amino)-2-ethyl-5-methoxyphenyl)piperidin-4-yl)-2-(hydroxymethyl)piperazin-1-yl)ethyl)-2-fluorophenyl)piperidine-2,6-dione]",7.9,87.2,23.6,83.17
"CCc1cc(Nc2ncc(Br)c(Nc3ccc4nccnc4c3P(C)(C)=O)n2)c(OC)cc1N1CCC(N2CCN(CCc3ccc(C4CCC(=O)NC4=O)c(F)c3)[C@H](COC)C2)CC1 (stereo partly drawn) [Example 292, 3-(4-(2-((S)-4-(1-(4-((5-bromo-4-((5-(dimethylphosphoryl)quinoxalin-6-yl)amino)pyrimidin-2-yl)amino)-2-ethyl-5-methoxyphenyl)piperidin-4-yl)-2-(methoxymethyl)piperazin-1-yl)ethyl)-2-fluorophenyl)piperidine-2,6-dione]",15.1,84.2,32.3,87.11
"CCc1cc(Nc2ncc(Br)c(Nc3ccc4nccnc4c3P(C)(C)=O)n2)c(OC)cc1N1CCC(N2CCN(C(=O)[C@H]3C[C@H](Nc4ccc(C5CCC(=O)NC5=O)cc4)C3)CC2)CC1 (stereo partly drawn) [Example 298, 3-(4-(((1r,3r)-3-(4-(1-(4-((5-bromo-4-((5-(dimethylphosphoryl)quinoxalin-6-yl)amino)pyrimidin-2-yl)amino)-2-ethyl-5-methoxyphenyl)piperidin-4-yl)piperazine-1-carbonyl)cyclobutyl)amino)phenyl)piperidine-2,6-dione]",4.38,80.8,16.7,86.58
"CCc1cc(Nc2ncc(Br)c(Nc3ccc4nccnc4c3P(C)(C)=O)n2)c(OC)cc1N1CCC(N2CCN(C3CCN(c4ccc(C5CCC(=O)NC5=O)cc4)CC3)CC2)CC1 (stereo not drawn) [Example 299, 3-(4-(4-(4-(1-(4-((5-bromo-4-((5-(dimethylphosphoryl)quinoxalin-6-yl)amino)pyrimidin-2-yl)amino)-2-ethyl-5-methoxyphenyl)piperidin-4-yl)piperazin-1-yl)piperidin-1-yl)phenyl)piperidine-2,6-dione]",4.88,85,36.4,80.72

# The remaining compounds from weak to strong by DC50 [1], led by results:
DC50 [1] [nM],Dmax [2] [%],DC50 [2] [nM],Compound,DTC Dmax (%) [1] [%]
61.2,75.5,81.4,"CCc1cc(Nc2ncc(Br)c(Nc3ccc4nccnc4c3P(C)(C)=O)n2)c(OC)cc1N1CCC(N2CCN(C[C@H]3C[C@H](c4ccc(NC5CCC(=O)NC5=O)cc4)C3)CC2)CC1 (stereo partly drawn) [Example 284, 3-((4-((1r,3r)-3-((4-(1-(4-((5-bromo-4-((5-(dimethylphosphoryl)quinoxalin-6-yl)amino)pyrimidin-2-yl)amino)-2-ethyl-5-methoxyphenyl)piperidin-4-yl)piperazin-1-yl)methyl)cyclobutyl)phenyl)amino)piperidine-2,6-dione]",77.49
43.3,74.6,63.3,"CCc1cc(Nc2ncc(Br)c(Nc3ccc4nccnc4c3P(C)(C)=O)n2)c(OC)cc1N1CCC(N2CCN(C3CCN(c4ccc(C5CCC(=O)NC5=O)cc4)C3)CC2)CC1 (stereo not drawn) [Example 281, 3-(4-(3-(4-(1-(4-((5-bromo-4-((5-(dimethylphosphoryl)quinoxalin-6-yl)amino)pyrimidin-2-yl)amino)-2-ethyl-5-methoxyphenyl)piperidin-4-yl)piperazin-1-yl)pyrrolidin-1-yl)phenyl)piperidine-2,6-dione]",67.1
22,90.5,33.5,"COc1cc(N2CCC(N3C[C@@H]4C[C@H]3CN4CCC3CCN(c4cc(F)c(C5CCC(=O)NC5=O)c(F)c4)CC3)CC2)c(C)cc1Nc1ncc(Br)c(Nc2ccc3nccnc3c2P(C)(C)=O)n1 (stereo partly drawn) [Example 268, 3-(4-(4-(2-((1S,4S)-5-(1-(4-((5-bromo-4-((5-(dimethylphosphoryl)quinoxalin-6-yl)amino)pyrimidin-2-yl)amino)-5-methoxy-2-methylphenyl)piperidin-4-yl)-2,5-diazabicyclo[2.2.1]heptan-2-yl)ethyl)piperidin-1-yl)-2,6-difluorophenyl)piperidine-2,6-dione]",93.75
21.3,84.1,333,"CCc1cc(Nc2ncc(Br)c(Nc3ccc4nccnc4c3P(C)(C)=O)n2)c(OC)cc1N1CCC(N2CCN(CCc3ccc(C4CCC(=O)NC4=O)c(F)c3)C[C@H]2COC)CC1 (stereo partly drawn) [Example 288, 3-(4-(2-((S)-4-(1-(4-((5-bromo-4-((5-(dimethylphosphoryl)quinoxalin-6-yl)amino)pyrimidin-2-yl)amino)-2-ethyl-5-methoxyphenyl)piperidin-4-yl)-3-(methoxymethyl)piperazin-1-yl)ethyl)-2-fluorophenyl)piperidine-2,6-dione]",69.76
17.4,85.3,43.7,"CCc1cc(Nc2ncc(Br)c(Nc3ccc4nccnc4c3P(C)(C)=O)n2)c(OC)cc1N1CCC(N2CCN(CCc3ccc(C4CCC(=O)NC4=O)c(F)c3)[C@@H](COC)C2)CC1 (stereo partly drawn) [Example 293, 3-(4-(2-((R)-4-(1-(4-((5-bromo-4-((5-(dimethylphosphoryl)quinoxalin-6-yl)amino)pyrimidin-2-yl)amino)-2-ethyl-5-methoxyphenyl)piperidin-4-yl)-2-(methoxymethyl)piperazin-1-yl)ethyl)-2-fluorophenyl)piperidine-2,6-dione]",83.85
15.9,96,24.3,"CCc1cc(Nc2ncc(Br)c(Nc3ccc4nccnc4c3P(C)(C)=O)n2)c(OC)cc1N1CCC(N2CCN(C(=O)CC3CCN(c4cc(F)c(C5CCC(=O)NC5=O)c(F)c4)CC3)CC2)CC1 (stereo not drawn) [Example 274, 3-(4-(4-(2-(4-(1-(4-((5-bromo-4-((5-(dimethylphosphoryl)quinoxalin-6-yl)amino)pyrimidin-2-yl)amino)-2-ethyl-5-methoxyphenyl)piperidin-4-yl)piperazin-1-yl)-2-oxoethyl)piperidin-1-yl)-2,6-difluorophenyl)piperidine-2,6-dione]",89.85
5.2,84.8,22.9,"CCc1cc(Nc2ncc(Br)c(Nc3ccc4nccnc4c3P(C)(C)=O)n2)c(OC)cc1N1CCC(N2CCN(CCc3ccc(C4CCC(=O)NC4=O)c(F)c3)[C@@H](CO)C2)CC1 (stereo partly drawn) [Example 287, 3-(4-(2-((R)-4-(1-(4-((5-bromo-4-((5-(dimethylphosphoryl)quinoxalin-6-yl)amino)pyrimidin-2-yl)amino)-2-ethyl-5-methoxyphenyl)piperidin-4-yl)-2-(hydroxymethyl)piperazin-1-yl)ethyl)-2-fluorophenyl)piperidine-2,6-dione]",88.55
